# Key:
# IL-6 = test: LPS-stimulated IL-6 secretion in macrophages (ELISA); type: cell-based, mouse; settings: 10 μM compound, 10 μg/mL LPS 2 days, control 13.13, LPS 321.13
# Procedure: Mouse macrophages were used to examine the inhibition of compounds on IL-6 secretion in LPS stimulation.
# Mouse macrophages were cultured in RPMI 1640 medium for 1 day. Then, 10 μM mangiferin 8a and 10 μM norathyriol were added to macrophages, and after 1 day of culture, 10 μg/mL of LPS was added to each, followed by 2 days of culture. After these samples were incubated for 2 days, the culture supernatant was collected and IL-6 secretion was measured by enzyme-linked immunosorbent assay (ELISA). The mouse IL-6 ELISA kit (R&D) was used for this measurement.
# Th17 cells = test: Th17 cell activation in inflammation-induced mouse model (IL-17A flow cytometry); type: in vivo; settings: DBA/1J mice, Freund's complete adjuvant + bovine type2 collagen; oral 10 mg/kg daily 20 days; thymus cells; vs vehicle group
# Procedure: Equal volume mixtures of Freund's complete adjuvant and Bovine type2 collagen were administered to 6-week-old male DBA/1J mice (Japan SLC Inc.) at 0.1 mL (day 0 of the study). 21 days later, DBA/1J mice were again injected with 0.1 mL of the above mixture for secondary immunization. After the second immunization, mice were orally treated with 10 mg/kg of mangiferin 8a and 10 mg/kg of norathyriol daily for 20 days. 20 days later, thymus glands were harvested from mice and stained with anti-CD4 and anti-IL-17A antibodies, which are Th17 cell markers, and expression of IL-17A (CD4 positive) was measured using BD LSRFortessa.
# [1] = tested on: B cells collected from mice; test: BAFF-induced differentiation into mature B cells (IgM/IgD flow cytometry); type: cell-based, mouse; settings: 100 ng/mL BAFF, 10 days, 100 μM mangiferin, 20 μM 1,3,5,6-tetrahydroxyxanthone, 10 μM others
# Procedure: B cells collected from mice were cultured in RPMI 1640 medium for 1 day. Then, 100 μM mangiferin, 10 μM mangiferin 8a, 10 μM norathyriol, 20 μM 1,3,5,6-tetrahydroxyxanthone, 10 μM xanthohydrol, 10 μM α-mangostin, 10 μM of γ-mangostin were added to B cell, and after 1 day of culture, 100 ng/mL of BAFF was added, followed by 10 days of culture. After 10 days of culture, cells were stained with anti-IgM and anti-IgD antibodies, markers of B cells, and the expression of IgM and IgD was measured using BD LSRFortessa. Note that IgM negative and IgD negative indicates pre-B cells, IgM positive and IgD negative indicates immature B cells, and IgM positive and IgD positive indicates mature B cells.
# mouse B cells = test: LPS-stimulated B cell proliferation (trypan blue); type: cell-based; settings: 10 μM compound, 10 μg/mL LPS 3 days, control 1.66×10^4, LPS 4.25×10^4
# Procedure: The inhibitory effect of the compound on B cell proliferation was examined using mouse B cells.
# B cells collected from mice were cultured in RPMI 1640 medium for 1 day. Then, 10 μM mangiferin 8a and 10 μM norathyriol were added to B cells, and after 1 day of culture, 10 μg/mL of lipopolysaccharide (LPS) was added to each for 3 days. After 3 days of incubation, the number of viable cells was determined by the trypan blue dye method. Note that LPS was used as an allergic inflammation inducer.
# Referring to FIG. 48, the horizontal axis indicates treatment with each compound and the vertical axis indicates cell count (1×10^4 cells/mL). Only 0.5% DMSO in PBS, which was used to dissolve the reagent (compound), was added as control. The LPS group is referred to as the LPS group with 10 μg/mL LPS, the mangiferin 8a group is referred to as the mangiferin 8a group with LPS and mangiferin 8a, and the norathyriol group is referred to as the norathyriol group with LPS and norathyriol.
# IgE antibody = test: Serum IgE antibody ELISA, atopic dermatitis mice; type: in vivo, mouse; settings: day 7, topical application, control 1214, vehicle (MC903) 2588
# Procedure: MC903 at 2 nM was applied to the right auricle of a 6-week-old male Balb/c (Japan SLC Inc.). Starting 8 h later, 5% norathyriol aqueous solution (1 mL of ethanol containing […] of norathyriol), betamethasone ointment, and delgocitinib ointment were applied to the auricle for 7 days. The measurement of auricular skin swelling was calculated by calipers. The day on which the first application of the compound was made was defined as day 0. Betamethasone and delgocitinib are currently in clinical use in atopic dermatitis and were used as control drugs in this example.
# Serum was collected from mice on day 7 in Example 1, and IgE antibody production was measured by enzyme-linked immunosorbent assay (ELISA). This assay was performed using a mouse IgE antibody ELISA kit (R&D).
# NF-κB p52 = test: LPS-stimulated B cells, nuclear NF-κB p52 (Western blotting); type: cell-based, mouse; settings: 10 μM compound; vs 10 μg/mL LPS
# Procedure: Spleens were harvested from 6-week-old male Balb/c mice and B cells were isolated. After isolation, the cells were seeded in […] dish and cultured in RPMI 1640 medium for 1 day and used as control. In addition, B cells were seeded into 100 mm^2 dish, and after 1 day of culture, 10 μg/mL LPS was added and cultured for 1 h. Furthermore, B cells were seeded in […] dish, and after 1 day of culture, 10 μM mangiferin 8a and 10 μM norathyriol were added to B cells, and after 23 h, 10 μg/mL LPS was added to each, and the cells were incubated for 1 h. All were incubated at 37° C. and 5% CO2.
# Proteins were extracted with cell lysate and used as samples. Each sample was transferred to a PVDF membrane after SDSPAGE and assayed with anti-phospho-NIK, anti-NIK, anti-NF-κB p52, anti-NF-κB p65 and anti-Lamin antibodies.
# The antibody species is indicated in the vertical direction. Specifically, in the case of anti-phospho-NIK antibody (described as “Phospho-NIK”), anti-NIK antibody (described as “NIK”), anti-NF-κB p52 antibody (described as “NF-κB p52 nuclear”), anti-NF-κB p65 antibody (described as “NF-κB p65 nuclear”) and anti-Lamin antibody (described as “Lamin”).
# [2] = tested on: B cells collected from mice; test: BAFF-induced differentiation into plasma cells (CD138 flow cytometry); type: cell-based, mouse; settings: 100 ng/mL BAFF, 10 days; 100 μM mangiferin, 20 μM 1,3,5,6-tetrahydroxyxanthone, 10 μM others; vs BAFF-added group
# Procedure: B cells collected from mice were cultured in RPMI 1640 medium for 1 day. Then, 100 μM mangiferin, 10 μM mangiferin 8a, 10 μM norathyriol, 20 μM 1,3,5,6-tetrahydroxyxanthone, 10 μM xanthohydrol, 10 μM α-mangostin, 10 μM of γ-mangostin were added to B cell, and after 1 day of culture, 100 ng/mL of BAFF was added, followed by 10 days of culture. After 10 days of culture, cells were stained with anti-CD138 antibody, a marker of plasma cells, and CD138 expression was measured using BD LSRFortessa.
# In all figures, the horizontal axis represents the expression level of CD138 and the vertical axis represents the number of cells.
structure (smiles),measurement,setting,value
"O=c1c2cc(O)c(O)cc2oc2cc(O)cc(O)c12 [norathyriol, 1,3,6,7-tetrahydroxyxanthone]",IL-6 secretion,IL-6,64.13 pg/mL
same,IL-17A expression (CD4 positive),Th17 cells,markedly reduced
same,population IgM positive and IgD positive (mature B cells),"[1]; control 0, BAFF only 45.6",0.062%
same,population IgM positive and IgD negative (immature B cells),"[1]; control 0.529, BAFF only 42.3",1.46%
same,population IgM negative and IgD negative (pre-B cells),"[1]; control 99.5, BAFF only 11.7",98.5%
same,number of viable cells (cell count),mouse B cells,1.16×10^4 cells/mL
same,amount of IgE antibody,IgE antibody,1692 ng/mL
same,nuclear NF-κB p52 band (immunoblotting),NF-κB p52,fainter
same,CD138 expression,[2],significantly decreased CD138 expression
